Measurements published in ChEMBL document CHEMBL4011644, “3-Hydroxy-N'-arylidenepropanehydrazonamides with Halo-Substituted Phenanthrene Scaffolds Cure P. berghei Infected Mice When Administered Perorally” (J Med Chem, 2017).
Active and inactive are the calls of the source. The calls are words filed in the database; no cut-off is given here.

Columns and labels:
[1] = biological target: Voltage-gated inwardly rectifying potassium channel KCNH2 (Homo sapiens, UniProt Q12809); experiment: Inhibition of human ERG by fluorescence polarization assay
Chain of Voltage-gated inwardly rectifying potassium channel KCNH2 (Q12809 whole entry): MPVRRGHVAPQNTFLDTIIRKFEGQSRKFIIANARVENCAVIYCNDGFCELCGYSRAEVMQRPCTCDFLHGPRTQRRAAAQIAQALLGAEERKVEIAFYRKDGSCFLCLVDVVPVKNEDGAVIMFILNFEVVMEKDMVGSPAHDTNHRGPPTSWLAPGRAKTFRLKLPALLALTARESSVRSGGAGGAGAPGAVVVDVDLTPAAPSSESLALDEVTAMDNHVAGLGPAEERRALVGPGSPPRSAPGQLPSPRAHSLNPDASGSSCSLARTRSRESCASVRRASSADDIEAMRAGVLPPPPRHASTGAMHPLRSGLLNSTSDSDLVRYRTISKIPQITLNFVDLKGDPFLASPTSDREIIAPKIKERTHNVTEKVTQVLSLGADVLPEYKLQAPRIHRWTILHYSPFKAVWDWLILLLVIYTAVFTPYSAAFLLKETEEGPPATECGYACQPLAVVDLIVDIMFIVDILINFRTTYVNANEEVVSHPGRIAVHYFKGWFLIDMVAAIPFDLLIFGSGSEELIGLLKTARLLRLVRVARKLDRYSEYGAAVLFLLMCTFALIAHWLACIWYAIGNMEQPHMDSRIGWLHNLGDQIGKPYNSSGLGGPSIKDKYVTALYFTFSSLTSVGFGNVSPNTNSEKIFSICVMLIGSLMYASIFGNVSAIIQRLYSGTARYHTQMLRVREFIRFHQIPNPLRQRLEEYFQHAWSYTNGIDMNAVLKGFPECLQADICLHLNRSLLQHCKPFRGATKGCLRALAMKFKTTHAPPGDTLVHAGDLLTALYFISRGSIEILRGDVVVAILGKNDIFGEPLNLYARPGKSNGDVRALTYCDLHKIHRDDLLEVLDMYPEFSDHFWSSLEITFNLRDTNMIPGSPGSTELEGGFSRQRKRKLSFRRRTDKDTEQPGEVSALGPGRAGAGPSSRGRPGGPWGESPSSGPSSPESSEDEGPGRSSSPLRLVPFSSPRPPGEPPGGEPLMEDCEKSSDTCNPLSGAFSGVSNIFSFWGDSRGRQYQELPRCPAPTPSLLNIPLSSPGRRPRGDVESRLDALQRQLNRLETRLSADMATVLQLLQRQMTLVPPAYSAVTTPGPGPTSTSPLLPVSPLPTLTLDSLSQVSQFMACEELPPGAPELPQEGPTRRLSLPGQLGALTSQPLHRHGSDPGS

Plasmodium berghei [2] = experiment: Antiplasmodial activity against Plasmodium berghei infected in NMRI mouse assessed as parasite-free mouse at 30 mg/kg, po administered at 4, 24, 48, 72 hrs post infection measured on day 30 by Peter's test; format: functional, organism-based
Plasmodium berghei [3] = experiment: […] activity against GFP-fused Plasmodium berghei liver stage parasites infected in human HepG2-A16-CD81-EGFP cells after 48 hrs by luciferase reporter gene assay; format: functional
Plasmodium berghei [4] = experiment: Antiplasmodial activity against Plasmodium berghei infected in NMRI mouse assessed as mean survival time at 30 mg/kg, po administered at 4, 24, 48, 72 hrs post infection by Peter's test (reference value: 6 to 7 day); format: functional
Plasmodium berghei [5] = experiment: Antiplasmodial activity against Plasmodium berghei infected in NMRI mouse assessed as reduction in parasitemia at 30 mg/kg, po administered at 4, 24, 48, 72 hrs post infection measured on day 4 by Peter's test relative to control; format: functional; design: scale not given: the % may be the effect or the level left
Plasmodium falciparum [6] = experiment: Antiplasmodial activity against chloroquine-sensitive asexual blood stages of Plasmodium falciparum 3D7 after 72 hrs by HRP2-based ELISA; format: functional; conditions: 3D7, 72 h
Plasmodium berghei [7] = experiment: Antiplasmodial activity against Plasmodium berghei infected in NMRI mouse assessed as mean survival time at 10 mg/kg, po administered at 4, 24, 48, 72 hrs post infection measured on day 4 by Peter's test (reference value: 6 to 7 day); format: functional
Mus musculus = experiment: Toxicity in NMRI mouse infected with Plasmodium berghei assessed as overt toxicity at 50 mg/kg, ip administered at 4, 24, 48, 72 hrs post infection; format: organism-based; conditions: in vivo
Plasmodium falciparum [8] = experiment: Gametocytocidal activity against transgenic GFP-fused Plasmodium falciparum NF54 early stage gametocytes after 72 hrs by Mitotracker Red CMH2XRos staining based confocal microscopic method; format: functional; conditions: NF54, 72 h
Plasmodium falciparum [9] = experiment: Effect on male gamete formation in transgenic GFP-fused Plasmodium falciparum NF54 mature stage-5 gametocytes at 1 uM after 72 hrs under reduced oxygen tension by Mitotracker Red CMH2XRos staining based confocal microscopic method; format: functional
Plasmodium falciparum [10] = experiment: Effect on female gamete formation in transgenic GFP-fused Plasmodium falciparum NF54 mature stage-5 gametocytes at 1 uM after 72 hrs under reduced oxygen tension by Mitotracker Red CMH2XRos staining based confocal microscopic method; format: functional
Plasmodium berghei [11] = experiment: Antiplasmodial activity against Plasmodium berghei infected in NMRI mouse assessed as mean survival time at 3 mg/kg, po administered at 4, 24, 48, 72 hrs post infection measured on day 4 by Peter's test (reference value: 6 to 7 day); format: functional
Plasmodium berghei [12] = experiment: Antiplasmodial activity against Plasmodium berghei infected in NMRI mouse assessed as reduction in parasitemia at 3 mg/kg, po administered at 4, 24, 48, 72 hrs post infection measured on day 4 by Peter's test relative to control; format: functional; design: scale not given: the % may be the effect or the level left
Plasmodium berghei [13] = experiment: Antiplasmodial activity against Plasmodium berghei infected in NMRI mouse assessed as mean survival time at 50 mg/kg, po administered at 4, 24, 48, 72 hrs post infection by Peter's test (reference value: 6 to 7 day); format: functional
HepG2 = experiment: Cytotoxicity against human HepG2 cells by CellTiterGlo assay; format: cell-based
Plasmodium berghei [14] = experiment: Antiplasmodial activity against Plasmodium berghei infected in NMRI mouse assessed as reduction in parasitemia at 50 mg/kg, po administered at 4, 24, 48, 72 hrs post infection measured on day 4 post infection by Peter's test relative to control; format: functional; design: scale not given: the % may be the effect or the level left
Plasmodium falciparum [15] = experiment: Antiplasmodial activity against multidrug-resistant asexual blood stages of Plasmodium falciparum Dd2 after 72 hrs by HRP2-based ELISA; format: functional; conditions: Dd2, 72 h
[16] = Chemical stability of compound in tween 20/ethanol/phosphate buffer at 1 mg/ml at pH 7.5 assessed as compound remaining after 6 hrs by HPLC analysis; format: physicochemical; conditions: read-out: Stability
[17] = Drug degradation in Tween 20/ethanol/phosphate buffer at 1 mg/ml at pH 7.5 after 24 hrs by HPLC analysis
Plasmodium berghei [18] = experiment: Antiplasmodial activity against Plasmodium berghei infected in NMRI mouse assessed as reduction in parasitemia at 10 mg/kg, po administered at 4, 24, 48, 72 hrs post infection measured on day 4 by Peter's test relative to control; format: functional; design: scale not given: the % may be the effect or the level left
Plasmodium falciparum [19] = experiment: Gametocytocidal activity against transgenic GFP-fused Plasmodium falciparum NF54 […] stage gametocytes after 72 hrs by Mitotracker Red CMH2XRos staining based confocal microscopic method; format: functional; conditions: NF54, 72 h
Plasmodium berghei [20] = experiment: Antiplasmodial activity against Plasmodium berghei infected in NMRI mouse assessed as parasite free mouse at 3 mg/kg, po administered at 4, 24, 48, 72 hrs post infection measured on day 4 by Peter's test; format: functional, organism-based
[21] = Solubility of compound in phosphate buffer at pH 7.5 after 1 hr by HPLC analysis; format: physicochemical; conditions: pH 7.5, 1 h
[22] = Solubility of compound in phosphate buffer at pH 2.5 after 1 hr by HPLC analysis; format: physicochemical; conditions: pH 2.5, 1 h
Plasmodium berghei [23] = experiment: Antiplasmodial activity against Plasmodium berghei infected in NMRI mouse assessed as parasite free mouse at 10 mg/kg, po administered at 4, 24, 48, 72 hrs post infection measured on day 4 by Peter's test; format: functional, organism-based
[24] = Selectivity index, ratio of IC50 for human HepG2 cells to IC50 for chloroquine-sensitive asexual blood stages of Plasmodium falciparum 3D7; format: toxicity; conditions: read-out: Ratio IC50
Plasmodium berghei [25] = experiment: Antiplasmodial activity against Plasmodium berghei infected in NMRI mouse assessed as reduction in parasitemia at 50 mg/kg, ip administered at 4, 24, 48, 72 hrs post infection measured on day 4 post infection by Peter's test relative to control; format: functional; design: scale not given: the % may be the effect or the level left
Plasmodium berghei [26] = experiment: Antiplasmodial activity against Plasmodium berghei infected in NMRI mouse assessed as mean survival time at 50 mg/kg, ip administered at 4, 24, 48, 72 hrs post infection by Peter's test (reference value: 6 to 7 day); format: functional
Plasmodium berghei [27] = experiment: Antiplasmodial activity against Plasmodium berghei infected in NMRI mouse assessed as parasite-free mouse at 50 mg/kg, po administered at 4, 24, 48, 72 hrs post infection measured on day 30 by Peter's test; format: functional, organism-based

SMILES	Activity (Plasmodium berghei [2])	IC50 (Plasmodium berghei [3])	MST (Plasmodium berghei [4])	Activity (Plasmodium berghei [5])	IC50 (Plasmodium falciparum [6])	MST (Plasmodium berghei [7])	Activity (Mus musculus)	IC50 (Plasmodium falciparum [8])	Activity (Plasmodium falciparum [9])	Activity (Plasmodium falciparum [10])	Activity (Plasmodium berghei [12])	MST (Plasmodium berghei [13])	IC50 (HepG2)	Activity (Plasmodium berghei [14])	IC50 (Plasmodium falciparum [15])	Activity (Plasmodium berghei [18])	IC50 (Plasmodium falciparum [19])	Activity (Plasmodium berghei [20])	selectivity ratio [24]	other results
CCCCN(CCCC)CC(O)c1cc(Cl)cc2c1-c1ccc(Cl)cc1/C2=C/c1ccc(Cl)cc1 (configuration not stated) [LUMEFANTRINE]																				IC50 [1]: 377 nM
CCN(CC)CCCC(C)Nc1ccnc2cc(Cl)ccc12 (configuration not stated) [CHLOROQUINE]	inactive																			
O=C1C(O)=C([C@H]2CC[C@H](c3ccc(Cl)cc3)CC2)C(=O)c2ccccc21 [ATOVAQUONE]		0.26 nM																		
O[C@@H](c1cc(C(F)(F)F)nc2c(C(F)(F)F)cccc12)[C@H]1CCCCN1 [(S,R)-MEFLOQUINE]			29 days	99.9%																
N/C(CC(O)c1cc2c(F)cc(F)cc2c2cc(C(F)(F)F)ccc12)=N\N=C\c1ccc(F)cc1 (configuration not stated)	inactive	6900 nM	25.7 days	99.4%	2.3 nM	24.7 days	Non-Toxic	200 nM	inactive	inactive	78%	22 days	27700 nM	99.9%	2.9 nM	99.5%	66 nM	inactive		MST (Plasmodium berghei [11]): 7 days; remaining at 6 h, 1 mg/ml [16]: > 95%; Drug degradation [17]: 31%; solubility [21]: Insoluble; solubility [22]: Insoluble
CCN(CC)Cc1cc(/C=N/N=C(\N)CC(O)c2cc3c(F)cc(F)cc3c3cc(C(F)(F)F)ccc23)ccc1O (configuration not stated)	inactive	5200 nM	28.3 days	99.9%	3.9 nM	10 days	Non-Toxic	218 nM	inactive	inactive	<40%	29.7 days	13400 nM	99.9%	6.1 nM	99.4%	110 nM	inactive	3440	IC50 [1]: 390 nM; Activity (Plasmodium berghei [23]): inactive; Activity (Plasmodium berghei [25]): 99.8%; MST (Plasmodium berghei [26]): 30 days
C[C@H]1[C@H](OC(=O)CCC(=O)O)O[C@@H]2O[C@@]3(C)CC[C@H]4[C@H](C)CC[C@@H]1[C@@]24OO3 [ARTESUNATE]	inactive		10 days	99%																
N/C(CC(O)c1cc2c(Cl)cc(Cl)cc2c2cc(C(F)(F)F)ccc12)=N\N=C\c1ccc(F)cc1 (configuration not stated)	inactive	13000 nM	13.7 days	99.4%	1.8 nM	5 days	Non-Toxic	31 nM	inactive	inactive	<40%	25.3 days	43800 nM	99.9%	2.5 nM	80%	36 nM	inactive	24300	Activity (Plasmodium berghei [23]): inactive; Activity (Plasmodium berghei [25]): 99.9%; MST (Plasmodium berghei [26]): 25.3 days
CCN(CC)Cc1cc(/C=N/N=C(\N)CC(O)c2cc3c(Cl)cc(Cl)cc3c3cc(C(F)(F)F)ccc23)ccc1O (configuration not stated)		19100 nM			6.9 nM		Non-Toxic	453 nM				23 days	42800 nM	99.8%	13.8 nM		345 nM		6200	Activity (Plasmodium berghei [27]): inactive
